US9023789B2, “Amylin analogs and pharmaceutical compositions thereof” (Novo Nordisk A/S, priority 2012, dated 2015)
Numbered stars: 1 amine (or outer) side, 2 acyl side, 3 side chain; on linkers, the order of the positions; unused ones are H or OH. Bridge positions count the residues as written; N and C are the ends. Side chains are listed from the residue outwards. Peptide text beside a SMILES is read from it. * marks the point of attachment. C20 diacid = O=C(O)CCCCCCCCCCCCCCCCCCC(=O)*; γGlu = O=C(O)[C@H](CCC(=O)[*:2])N[*:1]; AEEA = NCCOCCOCC(=O)O

Experiments:
[1] = biological target: T1, human calcitonin receptor (Homo sapiens, UniProt P30988); assay: ASSAY (VII) binding to the human calcitonin receptor (SPA, 125I-Calcitonin); conditions: read-out: hCTR bind IC50;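 note: cell membranes (35 ng/µL) combined with SPA beads in 40 µL of pH 7.4 Hepes buffer, 384-well format, signal counted on a TopCounter instrument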
T1 construct: expressed in transfected cells
T1 sequence (P30988 25-474): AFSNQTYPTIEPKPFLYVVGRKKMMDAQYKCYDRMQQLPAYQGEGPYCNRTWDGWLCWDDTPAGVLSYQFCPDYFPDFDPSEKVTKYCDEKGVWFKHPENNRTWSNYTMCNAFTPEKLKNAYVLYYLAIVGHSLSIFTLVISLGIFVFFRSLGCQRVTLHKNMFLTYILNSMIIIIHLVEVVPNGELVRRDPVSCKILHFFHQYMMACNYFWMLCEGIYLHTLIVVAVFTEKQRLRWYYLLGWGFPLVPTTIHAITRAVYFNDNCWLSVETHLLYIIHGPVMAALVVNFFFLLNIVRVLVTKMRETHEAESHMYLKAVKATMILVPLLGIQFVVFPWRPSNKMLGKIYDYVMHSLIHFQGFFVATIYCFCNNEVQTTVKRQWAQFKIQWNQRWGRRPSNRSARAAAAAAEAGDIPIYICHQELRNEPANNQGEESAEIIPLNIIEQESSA

[2] = ASSAY (III) ThT fibrillation assay for physical stability; assay type: physicochemical
Procedure, shortened: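 Formulations with 1 μM ThT, pH adjusted as required, incubated at 37 °C with 960 rpm orbital shaking; fluorescence (ex 444/em 485 nm) read every 20 min. Fibrillation reported as mean ThT fluorescence ± SD of 4–8 replicates at time points; polypeptide concentration measured by reverse-phase HPLC before and after, post-centrifugation.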

[3] = biological target: T2, rat amylin receptor (rat calcitonin receptor + rat RAMP 3) (Rattus norvegicus, UniProt P32214+Q9JJ73); assay: ASSAY (VI) binding to the rat amylin receptor; conditions: for IC50: binding to rat amylin receptor, read-out: rAmylin-R bind IC50
T2 construct: expressed in transfected cells; host or cells: BHK tk'ts 13 (transient, FuGENE 6), membranes
T2 sequence (P32214 25-479 isoform P32214-2 limits assumed): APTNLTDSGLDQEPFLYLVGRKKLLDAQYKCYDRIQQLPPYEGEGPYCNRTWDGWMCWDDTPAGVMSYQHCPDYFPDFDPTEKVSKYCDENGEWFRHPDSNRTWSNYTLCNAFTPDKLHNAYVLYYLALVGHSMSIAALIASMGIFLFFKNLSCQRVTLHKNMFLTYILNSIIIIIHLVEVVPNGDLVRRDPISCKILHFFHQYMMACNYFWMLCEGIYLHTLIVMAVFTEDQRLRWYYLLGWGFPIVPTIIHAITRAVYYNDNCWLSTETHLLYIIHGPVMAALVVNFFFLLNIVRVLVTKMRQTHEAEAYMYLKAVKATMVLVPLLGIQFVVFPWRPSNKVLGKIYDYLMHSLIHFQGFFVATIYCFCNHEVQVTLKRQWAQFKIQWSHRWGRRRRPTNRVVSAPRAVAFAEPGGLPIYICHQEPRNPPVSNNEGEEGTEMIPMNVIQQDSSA
T2 sequence (Q9JJ73 23-147 partner): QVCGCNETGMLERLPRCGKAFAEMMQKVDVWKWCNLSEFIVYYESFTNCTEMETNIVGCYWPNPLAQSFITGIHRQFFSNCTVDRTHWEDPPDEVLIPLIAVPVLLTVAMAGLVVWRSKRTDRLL
Procedure, shortened: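 Binding to the rat amylin receptor was determined with membrane preparations. The receptor was expressed by transiently transfecting BHK tk′ts 13 cells with rat calcitonin receptor, using FuGENE® 6 (Roche) according to the manufacturer's recommendations. Roughly 48 hours later the cells were harvested and their membranes isolated.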

rat calcitonin receptor = biological target: T3, rat calcitonin receptor (Rattus norvegicus, UniProt P32214); assay: ASSAY (VIII) binding to the rat calcitonin receptor; conditions: Table 7, read-out: rCTR bind IC50
T3 construct: expressed in transfected cells; host or cells: BHK tk'ts 13 (transient, FuGENE 6), membranes
T3 sequence (P32214 25-479 isoform P32214-2 limits assumed): T2 sequence (P32214 25-479 isoform P32214-2 limits assumed)
Procedure, shortened: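 Transfect BHK tk′ts 13 cells transiently with rat calcitonin receptor, culture in DMEM containing 10% FBS, collect cells about 48 hours later, then prepare membranes.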

[4] = Table 7, rat binding selectivity, rCTR IC50 / rAmylin-R IC50
[5] = Table 7a (preferred compounds), rat binding selectivity, rCTR IC50 / rAmylin-R IC50
[6] = ratio of rCTR bind IC50 to rAmylin-R bind IC50

CC[C@H](C)[C@H](NC(=O)[C@H](C)NC(=O)CNC(=O)[C@H](Cc1ccccc1)NC(=O)[C@H](CC(N)=O)NC(=O)[C@@H]1CCCN1C(=O)[C@H](CO)NC(=O)[C@H](CO)NC(=O)[C@H](Cc1c[nH]cn1)NC(=O)[C@H](CCCNC(=N)N)NC(=O)[C@H](CC(C)C)NC(=O)[C@H](Cc1ccccc1)NC(=O)[C@H](CCCNC(=N)N)NC(=O)[C@H](C)NC(=O)[C@H](CC(C)C)NC(=O)[C@H](CCCNC(=N)N)NC(=O)[C@H](CCC(N)=O)NC(=O)[C@@H](NC(=O)[C@H](C)NC(=O)[C@@H]1CSSC[C@H](NC(=O)[C@@H](N)CCCCNC(=O)COCCOCCNC(=O)CC[C@H](NC(=O)CCCCCCCCCCCCCCCCCCC(=O)O)C(=O)O)C(=O)N[C@@H](CC(N)=O)C(=O)N[C@@H]([C@@H](C)O)C(=O)N[C@@H](C)C(=O)N[C@@H]([C@@H](C)O)C(=O)N1)[C@@H](C)O)C(=O)N1CCC[C@H]1C(=O)N[C@@H](CO)C(=O)N[C@@H](CO)C(=O)N[C@H](C(=O)N[C@@H](CC(N)=O)C(=O)N[C@H](C(=O)NCC(=O)N[C@@H](CO)C(=O)N[C@@H](CC(N)=O)C(=O)N[C@H](C(=O)N[C@@H](Cc1ccc(O)cc1)C(N)=O)[C@@H](C)O)C(C)C)[C@@H](C)O [Example 82] (H-K([AEEA-γGlu-C20 diacid])CNTATCATQRLARFLRHSSPNFGAIPSSTNVGSNTY-NH2; disulfide 2-7; N-terminus assumed)
IC50 [1]: 88.8 nM | ThT pH 4.0 lag time (h) [2]: 12 h | IC50 ([3]; Table 7): 1.64 nM | Ratio rCT/rAmylin binding [3, 4]: 87.0 | Ratio rCT/rAmylin binding [3, 5]: 87.0 | Ratio rCT/rAmylin binding [3, 6]: 87.0 | IC50 (rat calcitonin receptor): 143 nM

CC[C@H](C)[C@H](NC(=O)[C@H](C)NC(=O)CNC(=O)[C@H](Cc1ccccc1)NC(=O)[C@H](CC(N)=O)NC(=O)[C@@H]1CCCN1C(=O)[C@H](CO)NC(=O)[C@H](CO)NC(=O)[C@H](Cc1c[nH]cn1)NC(=O)[C@H](CCCNC(=N)N)NC(=O)[C@H](CC(C)C)NC(=O)[C@H](Cc1ccccc1)NC(=O)[C@H](CC(N)=O)NC(=O)[C@H](C)NC(=O)[C@H](CC(C)C)NC(=O)[C@H](CCCNC(=N)N)NC(=O)[C@H](CCC(N)=O)NC(=O)[C@@H](NC(=O)[C@H](C)NC(=O)[C@@H]1CSSC[C@H](NC(=O)[C@@H](N)CCCCNC(=O)COCCOCCNC(=O)CC[C@H](NC(=O)CCCCCCCCCCCCCCCCCCC(=O)O)C(=O)O)C(=O)N[C@@H](CC(N)=O)C(=O)N[C@@H]([C@@H](C)O)C(=O)N[C@@H](C)C(=O)N[C@@H]([C@@H](C)O)C(=O)N1)[C@@H](C)O)C(=O)N1CCC[C@H]1C(=O)N[C@@H](CO)C(=O)N[C@@H](CO)C(=O)N[C@H](C(=O)N[C@@H](CC(N)=O)C(=O)N[C@H](C(=O)NCC(=O)N1CCC[C@H]1C(=O)N[C@@H](CC(N)=O)C(=O)N[C@H](C(=O)N[C@@H](Cc1ccc(O)cc1)C(N)=O)[C@@H](C)O)C(C)C)[C@@H](C)O [Example 50]
IC50 [1]: 1.38 nM | ThT pH 4.0 lag time (h) [2]: 2 h | IC50 ([3]; Table 7): 0.069 nM | Ratio rCT/rAmylin binding [3, 4]: 81.7 | Ratio rCT/rAmylin binding [3, 5]: 81.7 | Ratio rCT/rAmylin binding [3, 6]: 81.7 | IC50 (rat calcitonin receptor): 5.63 nM

CC(C)C[C@H](NC(=O)[C@H](CCCNC(=N)N)NC(=O)[C@H](CCC(N)=O)NC(=O)[C@@H](NC(=O)[C@H](C)NC(=O)[C@@H]1CSSC[C@H](NC(=O)[C@@H](N)CCCCNC(=O)CC[C@H](NC(=O)CC[C@H](NC(=O)CCCCCCCCCCCCCCCCCCC(=O)O)C(=O)O)C(=O)O)C(=O)N[C@@H](CC(N)=O)C(=O)N[C@@H]([C@@H](C)O)C(=O)N[C@@H](C)C(=O)N[C@@H]([C@@H](C)O)C(=O)N1)[C@@H](C)O)C(=O)N[C@@H](C)C(=O)N[C@@H](CC(=O)O)C(=O)N[C@@H](Cc1ccccc1)C(=O)N[C@@H](CC(C)C)C(=O)N[C@@H](CCCNC(=N)N)C(=O)N[C@@H](Cc1c[nH]cn1)C(=O)N[C@@H](CO)C(=O)N[C@@H](CO)C(=O)N1CCC[C@H]1C(=O)N[C@@H](CC(N)=O)C(=O)N[C@@H](Cc1ccccc1)C(=O)NCC(=O)N[C@@H](C)C(=O)N1CCC[C@H]1C(=O)N[C@@H](CC(C)C)C(=O)N[C@@H](CO)C(=O)N[C@@H](CO)C(=O)N[C@H](C(=O)N[C@@H](CC(N)=O)C(=O)N[C@H](C(=O)NCC(=O)N[C@@H](CO)C(=O)N[C@@H](CC(=O)O)C(=O)N[C@H](C(=O)N[C@@H](Cc1ccc(O)cc1)C(N)=O)[C@@H](C)O)C(C)C)[C@@H](C)O [Example 1] (H-K([γGlu-γGlu-C20 diacid])CNTATCATQRLADFLRHSSPNFGAPLSSTNVGSDTY-NH2; disulfide 2-7)
IC50 [1]: 32.5 nM | ThT pH 4.0 lag time (h) [2]: 0 h | IC50 ([3]; Table 7): 1.3 nM | Ratio rCT/rAmylin binding [3, 4]: 103.9 | Ratio rCT/rAmylin binding [3, 5]: 103.9 | Ratio rCT/rAmylin binding [3, 6]: 103.9 | IC50 (rat calcitonin receptor): 135 nM

CC[C@H](C)[C@H](NC(=O)[C@H](C)NC(=O)CNC(=O)[C@H](Cc1ccccc1)NC(=O)[C@H](CC(N)=O)NC(=O)[C@@H]1CCCN1C(=O)[C@H](CO)NC(=O)[C@H](CO)NC(=O)[C@H](Cc1c[nH]cn1)NC(=O)[C@H](CCCNC(=N)N)NC(=O)[C@H](CC(C)C)NC(=O)[C@H](Cc1ccccc1)NC(=O)[C@H](Cc1c[nH]cn1)NC(=O)[C@H](C)NC(=O)[C@H](CC(C)C)NC(=O)[C@H](CCCNC(=N)N)NC(=O)[C@H](CCC(N)=O)NC(=O)[C@@H](NC(=O)[C@H](C)NC(=O)[C@@H]1CSSC[C@H](NC(=O)[C@@H](N)CCCCNC(=O)COCCOCCNC(=O)CC[C@H](NC(=O)CCCCCCCCCCCCCCCCCCC(=O)O)C(=O)O)C(=O)N[C@@H](CC(N)=O)C(=O)N[C@@H]([C@@H](C)O)C(=O)N[C@@H](C)C(=O)N[C@@H]([C@@H](C)O)C(=O)N1)[C@@H](C)O)C(=O)N1CCC[C@H]1C(=O)N[C@@H](CO)C(=O)N[C@@H](CO)C(=O)N[C@H](C(=O)N[C@@H](CC(N)=O)C(=O)N[C@H](C(=O)NCC(=O)N[C@@H](CO)C(=O)N[C@@H](CC(N)=O)C(=O)N[C@H](C(=O)N[C@@H](Cc1ccc(O)cc1)C(N)=O)[C@@H](C)O)C(C)C)[C@@H](C)O [Example 69] (H-K([AEEA-γGlu-C20 diacid])CNTATCATQRLAHFLRHSSPNFGAIPSSTNVGSNTY-NH2; disulfide 2-7; N-terminus assumed)
IC50 [1]: 8.68 nM | ThT pH 4.0 lag time (h) [2]: 22 h | IC50 ([3]; Table 7): 0.45 nM | Ratio rCT/rAmylin binding [3, 4]: 104.0 | Ratio rCT/rAmylin binding [3, 5]: 104.0 | Ratio rCT/rAmylin binding [3, 6]: 104.0 | IC50 (rat calcitonin receptor): 46.8 nM
